The text below walks through data of article PMC3559828 (PLoS ONE, 2013).

The target of one test is T1, Rat α9α10 nAChR (Rattus norvegicus, UniProt P43144+Q9JLB5).
T1 construct: expressed in transfected cells; host or cells: Xenopus oocytes injected with cRNA
As to the kind of experiment: cell-based.

The target of another test is T2, Rat α4β2 nAChR (Rattus norvegicus, UniProt P09483+P12390).
T2 construct: expressed in transfected cells; host or cells: Xenopus oocytes injected with cRNA
The experiment in a line: cell-based.

The target of another test is T3, Rat α6/α3β2β3 nAChR (Rattus norvegicus, UniProt P04757+P12390+P12391+P43143).
T3 construct: expressed in transfected cells; host or cells: Xenopus oocytes injected with cRNA
As to the kind of experiment: cell-based.

In another test the target is T4, Rat α2β2 nAChR (Rattus norvegicus, UniProt P12389+P12390).
T4 construct: expressed in transfected cells; host or cells: Xenopus oocytes injected with cRNA
The experiment in a line: cell-based.

The target in a further test is T5, Rat α3β4 nAChR (Rattus norvegicus, UniProt P04757+P12392).
T5 construct: expressed in transfected cells; host or cells: Xenopus oocytes injected with cRNA
As to the kind of experiment: cell-based.

For the next test, the target named is T6, Rat α2β4 nAChR (Rattus norvegicus, UniProt P12389+P12392).
T6 construct: expressed in transfected cells; host or cells: Xenopus oocytes injected with cRNA
The experiment in a line: cell-based.

The target in another test is T7, Rat α6/α3β4 nAChR (Rattus norvegicus, UniProt P04757+P12392+P43143).
T7 construct: expressed in transfected cells; host or cells: Xenopus oocytes injected with cRNA
As to the kind of experiment: cell-based.

For another test, the target named is T8, Rat α7 nAChR (Rattus norvegicus, UniProt Q05941).
T8 construct: expressed in transfected cells; host or cells: Xenopus oocytes injected with cRNA
As to the kind of experiment: cell-based.

The target of a further test is T9, Rat α3β2 nAChR (Rattus norvegicus, UniProt P04757+P12390).
T9 construct: expressed in transfected cells; host or cells: Xenopus oocytes injected with cRNA
As to the kind of experiment: cell-based.

The target of a further test is T10, Rat α4β4 nAChR (Rattus norvegicus, UniProt P09483+P12392).
T10 construct: expressed in transfected cells; host or cells: Xenopus oocytes injected with cRNA
As to the kind of experiment: cell-based.

The target of test [1] is T11, α9α10 nAChR (Rattus norvegicus, UniProt P43144+Q9JLB5).
T11 construct: expressed in transfected cells; host or cells: Xenopus oocytes injected with cRNA
The class given is cell-based.

Test [2] relates to α9α10 nAChR. The note with it: cited from earlier work.
The next test concerns α6/α3β2β3 nAChR. To be noted: cited from earlier work.
For a further test, the system named is α3β4 nAChR. To be noted: cited from earlier work.
In another test the test system is GABAB receptors. To be noted: cited from earlier work.

For orientation: IC50 means the concentration that gives 50% inhibition.

Bridge positions count the residues as written; N and C are the ends. Peptide text beside a SMILES is read from it.

T8 sequence (Q05941 23-502 limits assumed): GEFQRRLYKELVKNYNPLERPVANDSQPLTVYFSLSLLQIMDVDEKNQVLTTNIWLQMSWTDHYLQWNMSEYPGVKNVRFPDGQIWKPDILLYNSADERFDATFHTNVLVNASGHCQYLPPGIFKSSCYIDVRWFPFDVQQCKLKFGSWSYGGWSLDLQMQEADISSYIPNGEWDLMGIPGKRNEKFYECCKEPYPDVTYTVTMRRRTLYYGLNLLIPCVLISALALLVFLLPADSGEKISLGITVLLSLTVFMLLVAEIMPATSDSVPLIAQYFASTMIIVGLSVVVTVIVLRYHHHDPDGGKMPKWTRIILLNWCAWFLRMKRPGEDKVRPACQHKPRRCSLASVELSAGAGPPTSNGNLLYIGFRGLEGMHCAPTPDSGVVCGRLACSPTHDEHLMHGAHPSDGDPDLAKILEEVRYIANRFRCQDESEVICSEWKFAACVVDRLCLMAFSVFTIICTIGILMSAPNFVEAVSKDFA
T2 sequence (P09483 31-630 limits assumed): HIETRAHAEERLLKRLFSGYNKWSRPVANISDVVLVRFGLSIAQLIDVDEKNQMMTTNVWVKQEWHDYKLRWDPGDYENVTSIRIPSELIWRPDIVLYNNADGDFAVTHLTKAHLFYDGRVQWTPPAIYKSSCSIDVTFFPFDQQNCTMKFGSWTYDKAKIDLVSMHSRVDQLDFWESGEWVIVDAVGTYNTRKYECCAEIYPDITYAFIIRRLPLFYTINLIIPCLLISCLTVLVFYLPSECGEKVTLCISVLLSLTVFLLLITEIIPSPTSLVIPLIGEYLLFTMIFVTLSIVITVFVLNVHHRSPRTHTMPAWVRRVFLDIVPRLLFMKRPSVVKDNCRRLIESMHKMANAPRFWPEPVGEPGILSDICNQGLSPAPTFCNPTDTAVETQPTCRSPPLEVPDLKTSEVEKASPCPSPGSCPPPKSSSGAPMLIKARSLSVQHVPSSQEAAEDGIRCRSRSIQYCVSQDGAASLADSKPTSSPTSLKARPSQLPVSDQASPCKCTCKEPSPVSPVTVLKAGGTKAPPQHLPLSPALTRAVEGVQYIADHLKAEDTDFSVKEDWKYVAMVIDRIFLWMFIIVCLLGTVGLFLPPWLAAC
T2 sequence (P12390 25-500 limits assumed): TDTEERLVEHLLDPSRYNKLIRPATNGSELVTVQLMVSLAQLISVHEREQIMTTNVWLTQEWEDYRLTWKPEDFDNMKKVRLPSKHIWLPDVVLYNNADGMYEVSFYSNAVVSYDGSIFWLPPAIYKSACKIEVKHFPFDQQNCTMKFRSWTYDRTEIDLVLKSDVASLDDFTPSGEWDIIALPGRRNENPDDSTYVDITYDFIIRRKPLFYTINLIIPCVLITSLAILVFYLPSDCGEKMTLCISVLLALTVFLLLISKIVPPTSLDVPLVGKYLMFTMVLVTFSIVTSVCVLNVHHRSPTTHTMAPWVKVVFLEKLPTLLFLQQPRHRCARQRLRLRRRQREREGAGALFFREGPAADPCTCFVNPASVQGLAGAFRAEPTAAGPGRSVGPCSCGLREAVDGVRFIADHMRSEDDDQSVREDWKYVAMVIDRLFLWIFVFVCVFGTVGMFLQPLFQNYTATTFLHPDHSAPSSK
T1 sequence (P43144 26-479 limits assumed): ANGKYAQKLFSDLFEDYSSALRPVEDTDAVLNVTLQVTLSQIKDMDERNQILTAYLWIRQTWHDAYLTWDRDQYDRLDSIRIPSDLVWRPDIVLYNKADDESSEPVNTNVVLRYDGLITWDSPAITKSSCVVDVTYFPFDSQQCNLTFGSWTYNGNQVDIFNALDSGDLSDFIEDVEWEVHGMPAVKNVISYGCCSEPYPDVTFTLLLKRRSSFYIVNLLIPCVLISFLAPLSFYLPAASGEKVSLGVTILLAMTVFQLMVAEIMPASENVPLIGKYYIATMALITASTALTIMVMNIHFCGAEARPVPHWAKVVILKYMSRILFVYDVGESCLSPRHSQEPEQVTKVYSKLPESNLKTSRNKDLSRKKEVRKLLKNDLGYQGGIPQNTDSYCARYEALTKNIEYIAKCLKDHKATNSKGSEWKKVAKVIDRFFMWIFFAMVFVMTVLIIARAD
T1 sequence (Q9JLB5 25-447 limits assumed): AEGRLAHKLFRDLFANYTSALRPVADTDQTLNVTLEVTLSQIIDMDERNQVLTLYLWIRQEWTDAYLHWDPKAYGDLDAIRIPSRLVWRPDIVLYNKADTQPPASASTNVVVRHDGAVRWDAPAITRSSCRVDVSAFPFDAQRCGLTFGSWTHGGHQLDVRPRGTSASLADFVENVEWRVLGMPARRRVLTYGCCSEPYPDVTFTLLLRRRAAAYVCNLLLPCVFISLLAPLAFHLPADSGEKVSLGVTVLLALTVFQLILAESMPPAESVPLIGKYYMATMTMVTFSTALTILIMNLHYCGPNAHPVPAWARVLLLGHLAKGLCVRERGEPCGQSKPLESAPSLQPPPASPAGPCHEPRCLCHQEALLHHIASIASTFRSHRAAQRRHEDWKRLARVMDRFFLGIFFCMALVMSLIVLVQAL
T5 sequence (P04757 26-499 limits assumed): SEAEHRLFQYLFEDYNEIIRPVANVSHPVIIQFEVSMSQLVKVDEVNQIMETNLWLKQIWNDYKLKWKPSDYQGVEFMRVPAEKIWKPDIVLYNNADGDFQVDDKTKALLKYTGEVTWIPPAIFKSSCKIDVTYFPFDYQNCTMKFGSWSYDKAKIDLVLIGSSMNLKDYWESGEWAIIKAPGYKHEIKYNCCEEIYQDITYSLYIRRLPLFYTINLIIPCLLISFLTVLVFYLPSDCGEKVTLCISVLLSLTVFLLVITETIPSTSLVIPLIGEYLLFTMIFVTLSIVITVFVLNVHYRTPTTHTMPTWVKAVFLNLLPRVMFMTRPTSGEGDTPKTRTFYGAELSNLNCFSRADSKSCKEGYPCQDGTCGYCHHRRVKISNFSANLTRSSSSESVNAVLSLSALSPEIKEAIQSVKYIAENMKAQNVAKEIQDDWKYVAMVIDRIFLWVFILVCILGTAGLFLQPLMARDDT
T5 sequence (P12392 21-495 limits assumed): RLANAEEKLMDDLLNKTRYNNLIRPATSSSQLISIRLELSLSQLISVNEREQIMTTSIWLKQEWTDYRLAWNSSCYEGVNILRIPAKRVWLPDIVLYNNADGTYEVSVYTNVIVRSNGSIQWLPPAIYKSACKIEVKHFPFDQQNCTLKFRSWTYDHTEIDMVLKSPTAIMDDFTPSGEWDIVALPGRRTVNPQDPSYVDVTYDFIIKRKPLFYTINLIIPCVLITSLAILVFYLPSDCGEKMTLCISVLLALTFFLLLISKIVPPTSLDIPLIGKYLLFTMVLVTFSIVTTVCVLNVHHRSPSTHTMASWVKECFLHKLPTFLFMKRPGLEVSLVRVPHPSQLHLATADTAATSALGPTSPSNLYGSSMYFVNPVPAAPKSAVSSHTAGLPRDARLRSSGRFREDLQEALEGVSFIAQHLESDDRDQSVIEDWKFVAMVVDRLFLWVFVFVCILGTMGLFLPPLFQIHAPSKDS
T10 sequence (P09483 31-630 limits assumed): as the sequence (P09483 31-630 limits assumed) above
T10 sequence (P12392 21-495 limits assumed): as the sequence (P12392 21-495 limits assumed) above
T7 sequence (P43143+P04757 fused with the stated changes): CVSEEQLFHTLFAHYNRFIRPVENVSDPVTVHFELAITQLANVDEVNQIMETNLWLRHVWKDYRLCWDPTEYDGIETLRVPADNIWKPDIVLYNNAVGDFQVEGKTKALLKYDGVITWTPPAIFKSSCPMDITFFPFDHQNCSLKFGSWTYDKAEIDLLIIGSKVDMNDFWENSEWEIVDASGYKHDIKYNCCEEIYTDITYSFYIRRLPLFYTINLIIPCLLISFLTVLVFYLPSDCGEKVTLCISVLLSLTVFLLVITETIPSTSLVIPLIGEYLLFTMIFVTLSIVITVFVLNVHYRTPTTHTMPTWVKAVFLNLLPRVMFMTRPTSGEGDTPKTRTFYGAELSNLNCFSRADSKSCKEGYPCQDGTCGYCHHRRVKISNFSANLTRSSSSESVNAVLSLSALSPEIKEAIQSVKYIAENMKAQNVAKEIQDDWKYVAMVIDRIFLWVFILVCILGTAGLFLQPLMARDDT
T7 sequence (P12392 21-495): as the sequence (P12392 21-495 limits assumed) above
T9 sequence (P04757 26-499 limits assumed): as the sequence (P04757 26-499 limits assumed) above
T9 sequence (P12390 25-500 limits assumed): as the sequence (P12390 25-500 limits assumed) above
T4 sequence (P12389 28-511 limits assumed): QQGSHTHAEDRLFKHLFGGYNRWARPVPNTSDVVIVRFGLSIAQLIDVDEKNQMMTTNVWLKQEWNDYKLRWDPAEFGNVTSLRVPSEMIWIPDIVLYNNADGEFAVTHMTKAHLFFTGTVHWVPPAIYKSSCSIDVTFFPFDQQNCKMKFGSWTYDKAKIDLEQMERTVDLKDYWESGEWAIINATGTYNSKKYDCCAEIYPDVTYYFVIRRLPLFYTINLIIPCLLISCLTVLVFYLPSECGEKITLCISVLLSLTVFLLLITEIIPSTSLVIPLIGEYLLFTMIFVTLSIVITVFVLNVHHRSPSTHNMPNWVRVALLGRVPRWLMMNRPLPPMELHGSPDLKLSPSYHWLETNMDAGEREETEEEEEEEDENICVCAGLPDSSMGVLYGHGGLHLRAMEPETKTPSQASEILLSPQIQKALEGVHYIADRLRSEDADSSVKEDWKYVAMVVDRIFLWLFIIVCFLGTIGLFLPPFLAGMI
T4 sequence (P12390 25-500 limits assumed): as the sequence (P12390 25-500 limits assumed) above
T6 sequence (P12389 28-511 limits assumed): as the sequence (P12389 28-511 limits assumed) above
T6 sequence (P12392 21-495 limits assumed): as the sequence (P12392 21-495 limits assumed) above
T11 sequence (P43144 26-479 limits assumed): as the sequence (P43144 26-479 limits assumed) above
T11 sequence (Q9JLB5 25-447 limits assumed): as the sequence (Q9JLB5 25-447 limits assumed) above

For the compound `CC(C)C[C@@H]1NC(=O)[C@@H](NC(=O)[C@H](CCCNC(=N)N)NC(=O)[C@@H](N)C(C)C)CSSC[C@@H](C(=O)N[C@H]2CSSC[C@@H](C(=O)N[C@H](C(=O)N[C@@H](Cc3ccc(O)cc3)C(=O)N[C@@H](Cc3ccc(O)cc3)C(=O)N[C@H](C(=O)N[C@@H](CCC(N)=O)C(=O)N[C@@H](CO)C(=O)N[C@@H](CCCNC(=N)N)C(=O)N[C@@H](CCC(=O)O)C(=O)O)[C@@H](C)O)C(C)C)NC(=O)[C@H](CCCNC(=N)N)NC(=O)[C@H](CO)NC(=O)[C@H](Cc3c[nH]cn3)NC(=O)[C@H](CCCNC(=N)N)NC(=O)[C@H](C)NC(=O)[C@H](Cc3ccccc3)NC(=O)[C@H](CO)NC(=O)[C@@H]3CCCN3C(=O)CNC(=O)[C@H](CCCCN)NC(=O)[C@H](CCC(N)=O)NC2=O)NC(=O)[C@@H]2CCCN2C(=O)[C@@H]2CCCN2C(=O)[C@H](CCCNC(=N)N)NC(=O)[C@H](Cc2ccccc2)NC(=O)[C@H](CC(C)C)NC(=O)[C@H](CCCCN)NC(=O)[C@H](CC(N)=O)NC(=O)[C@@H]2CCCN2C(=O)[C@H](CCC(N)=O)NC(=O)[C@H](C)NC(=O)CNC(=O)[C@H](CO)NC(=O)[C@H](CCCCN)NC(=O)[C@H](CCC(=O)O)NC1=O` [αB-VxXXIVA [1], [2]] (H-VRCLEKSGAQPNKLFRPPCCQKGPSFARHSRCVYYTQSRE-OH; disulfide 3-19, 20-32), the IC50 on Rat α9α10 nAChR is 1.2 µM; on Rat α4β2 nAChR, over 30 µM; on Rat α6/α3β2β3 nAChR, 12.2 µM; on Rat α2β2 nAChR, 23.4 µM; on Rat α3β4 nAChR it was over 30 µM; on Rat α2β4 nAChR, over 30 µM. Also, the IC50 is 30.1 µM against Rat α6/α3β4 nAChR, over 30 µM at Rat α7 nAChR, over 30 µM at Rat α3β2 nAChR and over 30 µM on Rat α4β4 nAChR.
With `CC(C)C[C@@H]1NC(=O)[C@@H](NC(=O)[C@H](CCCNC(=N)N)NC(=O)[C@@H](N)C(C)C)CSSC[C@@H]2NC(=O)[C@H](CSSC[C@@H](C(=O)N[C@H](C(=O)N[C@@H](Cc3ccc(O)cc3)C(=O)N[C@@H](Cc3ccc(O)cc3)C(=O)N[C@H](C(=O)N[C@@H](CCC(N)=O)C(=O)N[C@@H](CO)C(=O)N[C@@H](CCCNC(=N)N)C(=O)N[C@@H](CCC(=O)O)C(=O)O)[C@@H](C)O)C(C)C)NC(=O)[C@H](CCCNC(=N)N)NC(=O)[C@H](CO)NC(=O)[C@H](Cc3c[nH]cn3)NC(=O)[C@H](CCCNC(=N)N)NC(=O)[C@H](C)NC(=O)[C@H](Cc3ccccc3)NC(=O)[C@H](CO)NC(=O)[C@@H]3CCCN3C(=O)CNC(=O)[C@H](CCCCN)NC(=O)[C@H](CCC(N)=O)NC2=O)NC(=O)[C@@H]2CCCN2C(=O)[C@@H]2CCCN2C(=O)[C@H](CCCNC(=N)N)NC(=O)[C@H](Cc2ccccc2)NC(=O)[C@H](CC(C)C)NC(=O)[C@H](CCCCN)NC(=O)[C@H](CC(N)=O)NC(=O)[C@@H]2CCCN2C(=O)[C@H](CCC(N)=O)NC(=O)[C@H](C)NC(=O)CNC(=O)[C@H](CO)NC(=O)[C@H](CCCCN)NC(=O)[C@H](CCC(=O)O)NC1=O` [αB-VxXXIVA [1], [3]] (H-VRCLEKSGAQPNKLFRPPCCQKGPSFARHSRCVYYTQSRE-OH; disulfide 3-20, 19-32), the IC50 at Rat α9α10 nAChR was 3.9 µM; at Rat α4β2 nAChR, over 30 µM; on Rat α6/α3β2β3 nAChR, over 30 µM; on Rat α2β2 nAChR, over 30 µM; at Rat α3β4 nAChR, over 30 µM; against Rat α2β4 nAChR, over 30 µM. For the same compound, the IC50 against Rat α6/α3β4 nAChR, at Rat α7 nAChR, against Rat α3β2 nAChR and against Rat α4β4 nAChR was over 30 µM each time.
Consider `CC(C)C[C@@H]1NC(=O)[C@@H](NC(=O)[C@H](CCCNC(=N)N)NC(=O)[C@@H](N)C(C)C)CSSC[C@@H](C(=O)N[C@H](C(=O)N[C@@H](Cc2ccc(O)cc2)C(=O)N[C@@H](Cc2ccc(O)cc2)C(=O)N[C@H](C(=O)N[C@@H](CCC(N)=O)C(=O)N[C@@H](CO)C(=O)N[C@@H](CCCNC(=N)N)C(=O)N[C@@H](CCC(=O)O)C(=O)O)[C@@H](C)O)C(C)C)NC(=O)[C@H](CCCNC(=N)N)NC(=O)[C@H](CO)NC(=O)[C@H](Cc2c[nH]cn2)NC(=O)[C@H](CCCNC(=N)N)NC(=O)[C@H](C)NC(=O)[C@H](Cc2ccccc2)NC(=O)[C@H](CO)NC(=O)[C@@H]2CCCN2C(=O)CNC(=O)[C@H](CCCCN)NC(=O)[C@H](CCC(N)=O)NC(=O)[C@@H]2CSSC[C@H](NC(=O)[C@@H]3CCCN3C(=O)[C@@H]3CCCN3C(=O)[C@H](CCCNC(=N)N)NC(=O)[C@H](Cc3ccccc3)NC(=O)[C@H](CC(C)C)NC(=O)[C@H](CCCCN)NC(=O)[C@H](CC(N)=O)NC(=O)[C@@H]3CCCN3C(=O)[C@H](CCC(N)=O)NC(=O)[C@H](C)NC(=O)CNC(=O)[C@H](CO)NC(=O)[C@H](CCCCN)NC(=O)[C@H](CCC(=O)O)NC1=O)C(=O)N2` [αB-VxXXIVA [1], [4]] (H-VRCLEKSGAQPNKLFRPPCCQKGPSFARHSRCVYYTQSRE-OH; disulfide 3-32, 19-20), for which the IC50 against Rat α9α10 nAChR, against Rat α4β2 nAChR, against Rat α3β4 nAChR and at Rat α7 nAChR was over 30 µM each time. In addition, the “activity at nAChRs (in words)” value on Rat α9α10 nAChR is “inactive”. The “block of α9α10 current” value on Rat α9α10 nAChR is recorded as “less than 15%”. Besides, at α9α10 nAChR [1], the “block in the presence of Ba++ (in words)” value is “did not potently block”.
As for α-Conotoxin Vc1.1, the IC50 in the test on α9α10 nAChR [2] is 0.005 µM; in the test on α6/α3β2β3 nAChR, 0.14 µM; in the test on α3β4 nAChR, 4.2 µM. In addition, in the test on GABAB receptors, the “activity at GABAB receptors” value is listed as “activate GABAB receptors”.
